According to patent US7038085B2, “Stereoisomers of p-hydroxy-milnacipran, and methods of use thereof” (Collegium Pharmaceutical, Inc., priority 2002, dated 2006):

Experiments:
Serotonin Uptake = Serotonin Uptake (Homo sapiens, UniProt P31645); test: Inhibition of cellular Serotonin Uptake (cat. 364000); assay type: cell-based; conditions: for IC50: cellular uptake, FIG. 61
Description: (§1) The methods employed have been adapted from the scientific literature to maximize reliability and reproducibility. Reference standards were run as an integral part of each assay to ensure the validity of the results obtained. Assays were performed under the conditions described below. The literature reference(s) for each assay are are listed below.
(§2) Where presented, IC50 values were determined by a non-linear, least squares regression analysis using Data Analysis Toolbox™ (MDL Information Systems, San Leandro, Calif., USA). Where inhibition constants (Ki) are presented, the Ki values were calculated using the equation of Cheng and Prusoff (Cheng, Y., Prusoff, W. H., Biochem. Pharmacol. 22:3099–3108, 1973) using the observed IC50 of the tested compound, the concentration of radioligand employed in the assay, and the historical values for the KD of the ligand (obtained experimentally at MDS Pharma Sarvices.

[1] = Cytotoxicity, fluorometric assay run with the uptake assays (cat. 302100, 364100); assay type: cell-based; conditions: at 10 μM
Description: • 118090. Crespi, C. L., Miller, V. P and Penman, B. W. (1997) Microtiter plate assays for inhibition of human, drug-metabolizing cytochromes P450. Anal Biochem 248(1): 188–190. • Gentest Technical Bulletin (Version 4.2: Revised 27 Sep. 2000) A high throughput method for measuring cytochrome P450 inhibition. Gentest Technical Bulletin (Version 4.2) Revised 27 Sep. 2000). • 204410. Galli, A., DeFelice, L., Duke, B.-J., Moore, K. Blakely, R. (1995) Sodium dependent norepinephrine induced currents in norephinephrine transporter transfected HEK293 cells blocked by cocaine and antidepressants. J. Exp. Biol. 198:2197–2212. • 212610. Eggerickx, D., Raspe, E. Bertrand, D., Vassart, G., Parmentier, M. (1992) Molecular cloning, functional expression and pharmacological characterization of a human bradykinin B2 receptor gene. Biochem Biophys Res Commun 187 (3): 1306–1313. • 214510. Schoemaker, H. and Langer, S. Z. (1985) [3H]Diltiazem binding to calcium channel antagonist recognition sites in rat cerebral cortex. Eur. J. Pharmacol. 111:273–277. • 274020. […] J. Biol. Chem. 269(10):7124–7130. • 302000. Galli, A., DeFelice, L. Duke, B.-J., and Blakely, R. (1995) Sodium dependent norephinephrine-induced currents in norepinephrine-transporter-transfected HEK-293 cells blocked by cocaine and antidepressants. J. Exp. Biol. 198:2197–2212. • 302100. Page, B., Page, M. and Noel, C. (1993) A new fluorometric assay for cytotoxicity measurements in vitro. […] 3:473–476, 1993. • 364000. […] J. Biol. Chem. […]:7124–7130. • 364100. Page, B., Page, M. and Noel, C. (1993) A new fluorometric assay for cytotoxicity measurements in vitro. Int. J. Oncology 3:473–476, 1993.

[2] = molecular target: T1, Serotonin Transporter (SERT) (Homo sapiens, UniProt P31645); test: Transporter, Serotonin (5-Hydroxytryptamine) (SERT) radioligand binding (cat. 274020); conditions: for Ki: human recombinant HEK-293 cells, [125I] RTI-55, Ki by Cheng and Prusoff, read-out: Ki, displacement of radioligand from Serotonin Transporter binding sites
T1 sequence (P31645 whole entry): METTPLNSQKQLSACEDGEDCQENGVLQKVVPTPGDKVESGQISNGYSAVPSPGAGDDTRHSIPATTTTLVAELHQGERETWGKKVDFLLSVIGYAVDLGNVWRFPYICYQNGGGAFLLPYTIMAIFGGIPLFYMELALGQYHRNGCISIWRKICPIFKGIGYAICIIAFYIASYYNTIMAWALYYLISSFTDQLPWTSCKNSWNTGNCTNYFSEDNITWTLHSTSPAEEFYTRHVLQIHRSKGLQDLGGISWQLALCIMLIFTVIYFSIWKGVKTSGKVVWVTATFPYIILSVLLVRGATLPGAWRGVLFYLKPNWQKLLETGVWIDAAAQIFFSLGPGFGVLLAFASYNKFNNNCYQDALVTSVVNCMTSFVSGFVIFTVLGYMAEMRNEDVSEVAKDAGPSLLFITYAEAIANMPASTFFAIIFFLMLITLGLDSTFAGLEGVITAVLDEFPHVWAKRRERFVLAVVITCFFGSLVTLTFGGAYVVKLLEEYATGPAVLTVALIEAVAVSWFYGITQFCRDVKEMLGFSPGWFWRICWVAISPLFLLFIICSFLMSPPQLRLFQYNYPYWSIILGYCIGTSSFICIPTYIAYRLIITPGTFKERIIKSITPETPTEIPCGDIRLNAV
Description: as §1, with “employed in this study” for “employed”, “under” for “under the”, “conditions as” for “conditions”, “Literature” for “The literature”, “tabulated below and hereby incorporated by reference.” for “are listed below.”
as §2, with “ToolboX™” for “Toolbox™”, “Prusoff(Cheng,” for “Prusoff (Cheng,”, “22:30993108,” for “22:3099–3108,”, “Kd” for “KD”, “Services). Where presented, the Hill coefficient (nH), defining the slope of the competitive binding curve, was calculated using Data Analysis Toolbox™. […] Where IC50, Ki, and/or nH data are presented without Standard Error of the Mean (SEM), data are insufficient to be quantitative, and the values presented (Ki, IC50, nH) should be interpreted with caution.” for “Sarvices.”
as §2

other receptors = test: Radioligand binding assay panel, other receptors (FIGS. 32 and 33); set-up: species or system human, mouse, guinea pig, syrian hamster, rat; conditions: radioligand binding assays at 10 μM
Description: as §1, with “employed in this study” for “employed”, “under” for “under the”, “conditions as” for “conditions”, “Literature” for “The literature”, “tabulated below and hereby incorporated by reference.” for “are listed below.”

[3] = molecular target: T2, Norepinephrine Transporter (NET) (Homo sapiens, UniProt P23975); test: Transporter, Norepinephrine (NET) radioligand binding (cat. 204410); conditions: for Ki: human recombinant MDCK cells, [125I] RTI-55, Ki by Cheng and Prusoff, read-out: Ki, displacement of radioligand from Norepinephrine Transporter binding sites
T2 sequence (P23975 whole entry): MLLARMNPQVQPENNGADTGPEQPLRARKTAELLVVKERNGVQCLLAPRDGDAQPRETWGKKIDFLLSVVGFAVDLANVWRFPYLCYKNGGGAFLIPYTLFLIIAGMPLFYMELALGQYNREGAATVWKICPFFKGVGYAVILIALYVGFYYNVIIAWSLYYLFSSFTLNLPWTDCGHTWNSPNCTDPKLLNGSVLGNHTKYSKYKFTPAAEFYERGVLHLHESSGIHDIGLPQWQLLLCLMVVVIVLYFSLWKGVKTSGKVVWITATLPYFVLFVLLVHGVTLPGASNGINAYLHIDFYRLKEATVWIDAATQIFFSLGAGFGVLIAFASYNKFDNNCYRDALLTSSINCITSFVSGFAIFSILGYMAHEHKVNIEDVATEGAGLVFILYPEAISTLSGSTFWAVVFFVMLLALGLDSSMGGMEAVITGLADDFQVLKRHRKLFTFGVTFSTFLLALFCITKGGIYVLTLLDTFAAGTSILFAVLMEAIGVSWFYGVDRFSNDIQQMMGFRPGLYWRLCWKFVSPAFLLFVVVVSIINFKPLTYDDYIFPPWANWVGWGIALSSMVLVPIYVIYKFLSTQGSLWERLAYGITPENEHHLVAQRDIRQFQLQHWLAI
Description: as §1, with “employed in this study” for “employed”, “under” for “under the”, “conditions as” for “conditions”, “Literature” for “The literature”, “tabulated below and hereby incorporated by reference.” for “are listed below.”
as §2, with “ToolboX™” for “Toolbox™”, “Prusoff(Cheng,” for “Prusoff (Cheng,”, “22:30993108,” for “22:3099–3108,”, “Kd” for “KD”, “Services). Where presented, the Hill coefficient (nH), defining the slope of the competitive binding curve, was calculated using Data Analysis Toolbox™. […] Where IC50, Ki, and/or nH data are presented without Standard Error of the Mean (SEM), data are insufficient to be quantitative, and the values presented (Ki, IC50, nH) should be interpreted with caution.” for “Sarvices.”
as §2

Norepinephrine Uptake = Norepinephrine Uptake (Homo sapiens, UniProt P23975); test: Inhibition of cellular Norepinephrine Uptake (cat. 302000); assay type: cell-based; conditions: for IC50: cellular uptake, FIG. 61
Sequence of Norepinephrine Uptake (P23975 whole entry): as above
Description: as §1, §2

beta adrenoceptors = conditions: after chronic administration; Briley et al. 1996; cited from earlier work
[4] = system: alpha or beta adrenergic, muscarinic, histaminergic, and dopaminergic receptors; conditions: cited from earlier work
uptake of dopamine = uptake of dopamine (Homo sapiens, UniProt Q01959); conditions: cited from earlier work
Sequence of uptake of dopamine (Q01959 whole entry): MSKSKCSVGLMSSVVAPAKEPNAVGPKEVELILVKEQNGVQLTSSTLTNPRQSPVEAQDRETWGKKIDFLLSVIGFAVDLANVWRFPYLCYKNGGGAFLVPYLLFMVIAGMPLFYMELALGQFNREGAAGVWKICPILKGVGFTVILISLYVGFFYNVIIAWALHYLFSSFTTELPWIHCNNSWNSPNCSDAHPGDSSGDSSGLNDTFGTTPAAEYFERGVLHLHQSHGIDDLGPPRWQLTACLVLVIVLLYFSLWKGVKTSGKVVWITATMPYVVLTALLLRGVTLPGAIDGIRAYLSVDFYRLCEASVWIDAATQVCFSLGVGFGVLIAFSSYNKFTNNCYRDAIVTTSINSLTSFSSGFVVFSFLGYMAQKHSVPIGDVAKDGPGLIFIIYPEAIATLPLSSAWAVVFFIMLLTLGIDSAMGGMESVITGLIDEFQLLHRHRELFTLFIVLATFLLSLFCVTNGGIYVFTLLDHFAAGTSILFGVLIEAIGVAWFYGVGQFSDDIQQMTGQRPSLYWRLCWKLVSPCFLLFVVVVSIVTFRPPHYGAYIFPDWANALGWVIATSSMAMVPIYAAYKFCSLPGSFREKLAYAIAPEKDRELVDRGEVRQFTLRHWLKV

[5] = system: norepinephrine (NE) and serotonin (5-HT) uptake; conditions: Viazzo et al. 1996; Deprez et al. 1998; cited from earlier work
[6] = molecular target: T2, Norepinephrine Transporter (NET); conditions: radioligand [125I] RTI-55; Human recombinant MDCK cells; historical value (*); cited from earlier work
[7] = molecular target: T1, Serotonin Transporter (SERT); conditions: radioligand [125I] RTI-55; Human recombinant HEK-293 cells; historical value (*); cited from earlier work

Sequence of Serotonin Uptake (P31645 whole entry): as the sequence (P31645 whole entry) above

Row | SMILES | IC50 (Serotonin Uptake) [nM] | cytotoxicity [1] | Ki [2] [nM] | Ki [3] [nM] | IC50 (Norepinephrine Uptake) [nM] | other results
1 | CCN(CC)C(=O)C1(c2ccc(O)cc2)CC1CN (racemic) [CS1814, racemic 2-Aminomethyl-1-(4-hydroxy-phenyl)-cyclopropanecarboxylic acid diethyl amide] | 21.7 | no cytotoxicity was observed | 6.73 | 218 | 28.6 | IC50 ([2]; radioligand binding, FIG. 59, read-out: IC50 for inhibition of serotonin transporter): 12.7 nM; binding to other receptors (other receptors): generally does not bind well to other receptors; IC50 ([3]; radioligand binding, FIG. 59, read-out: IC50 for inhibition of norepinephrine transporter): 220 nM; potency of inhibition of norepinephrine uptake compared to inhibition of serotonin uptake (Norepinephrine Uptake): approximately equal potency
2 | CCN(CC)C(=O)[C@@]1(c2ccccc2)C[C@H]1CN (racemic) [Milnacipran, milnacipran] | – | – | – | – | – | effect on the number of beta adrenoceptors in rat cortex (beta adrenoceptors): does not affect the number of beta adrenoceptors; affinity for alpha or beta adrenergic, muscarinic, histaminergic, and dopaminergic receptors [4]: no affinity; effect on the uptake of dopamine (uptake of dopamine): does not affect the uptake of dopamine
3 | CCN(CC)C(=O)[C@@]1(c2ccc(O)cc2)C[C@H]1CN [CS1713, 1S, 2R 2-Aminomethyl-1-(4-hydroxy-phenyl)-cyclopropanecarboxylic acid diethyl amide] | 22 | no cytotoxicity was observed | 3.88 | 112 | 10.3 | potency of inhibition of norepinephrine uptake compared to inhibition of serotonin uptake (Norepinephrine Uptake): approximately two-fold
4 | CCN(CC)C(=O)[C@]1(c2ccc(O)cc2)C[C@@H]1CN.Cl [CS1714, 1R, 2S 2-Aminomethyl-1-(4-hydroxy-phenyl)-cyclopropanecarboxylic acid diethyl amide] | 40.3 | no cytotoxicity was observed | 8.15 | 1680 | 88.5 | potency of inhibition of serotonin uptake compared to inhibition of norepinephrine uptake (Serotonin Uptake): approximately two-fold
5 | CCN(CC)C(=O)[C@@]1(c2ccccc2)C[C@H]1CN [F2695, (+)-1S,2R-milnacipran] | – | – | – | – | – | activity in inhibiting norepinephrine and serotonin reuptake compared with the racemic mixture [5]: roughly twice
6 | CCN(CC)C(=O)[C@]1(c2ccccc2)C[C@@H]1CN [F2696, (−)-1R,2S-milnacipran] | – | – | – | – | – | activity in inhibiting norepinephrine and serotonin reuptake compared with the racemic mixture [5]: much less potent
7 | COC(=O)[C@H]1[C@@H](c2ccc(I)cc2)C[C@@H]2CC[C@H]1N2C [[^125I] RTI-55] | – | – | – | – | – | Kd [6]: 24 nM; Kd [7]: 0.17 nM
